According to patent US9295673B2, “Combination of mTOR inhibitors and P13-kinase inhibitors, and uses thereof” (Intellikine LLC, priority 2011, dated 2016):
Read-outs that look alike come from different tables or passages of the source. Values belong to the molecule of their own block, whether it stands above or below them.

Tests used:
PI3K γ = PI3K γ (Homo sapiens, UniProt P48736); test: PI 3-Kinase (human) HTRF assay, PI3K γ
PI3K β = PI3K β (Homo sapiens, UniProt P42338); test: PI 3-Kinase (human) HTRF assay, PI3K β; conditions: read-out: PI3K β IC50
PI3K δ = PI3K δ (Homo sapiens, UniProt O00329); test: PI 3-Kinase (human) HTRF assay, PI3K δ
PI3K α = PI3K α (Homo sapiens, UniProt P42336); test: PI 3-Kinase (human) HTRF assay, PI3K α
Chain of PI3K α (P42336 whole entry): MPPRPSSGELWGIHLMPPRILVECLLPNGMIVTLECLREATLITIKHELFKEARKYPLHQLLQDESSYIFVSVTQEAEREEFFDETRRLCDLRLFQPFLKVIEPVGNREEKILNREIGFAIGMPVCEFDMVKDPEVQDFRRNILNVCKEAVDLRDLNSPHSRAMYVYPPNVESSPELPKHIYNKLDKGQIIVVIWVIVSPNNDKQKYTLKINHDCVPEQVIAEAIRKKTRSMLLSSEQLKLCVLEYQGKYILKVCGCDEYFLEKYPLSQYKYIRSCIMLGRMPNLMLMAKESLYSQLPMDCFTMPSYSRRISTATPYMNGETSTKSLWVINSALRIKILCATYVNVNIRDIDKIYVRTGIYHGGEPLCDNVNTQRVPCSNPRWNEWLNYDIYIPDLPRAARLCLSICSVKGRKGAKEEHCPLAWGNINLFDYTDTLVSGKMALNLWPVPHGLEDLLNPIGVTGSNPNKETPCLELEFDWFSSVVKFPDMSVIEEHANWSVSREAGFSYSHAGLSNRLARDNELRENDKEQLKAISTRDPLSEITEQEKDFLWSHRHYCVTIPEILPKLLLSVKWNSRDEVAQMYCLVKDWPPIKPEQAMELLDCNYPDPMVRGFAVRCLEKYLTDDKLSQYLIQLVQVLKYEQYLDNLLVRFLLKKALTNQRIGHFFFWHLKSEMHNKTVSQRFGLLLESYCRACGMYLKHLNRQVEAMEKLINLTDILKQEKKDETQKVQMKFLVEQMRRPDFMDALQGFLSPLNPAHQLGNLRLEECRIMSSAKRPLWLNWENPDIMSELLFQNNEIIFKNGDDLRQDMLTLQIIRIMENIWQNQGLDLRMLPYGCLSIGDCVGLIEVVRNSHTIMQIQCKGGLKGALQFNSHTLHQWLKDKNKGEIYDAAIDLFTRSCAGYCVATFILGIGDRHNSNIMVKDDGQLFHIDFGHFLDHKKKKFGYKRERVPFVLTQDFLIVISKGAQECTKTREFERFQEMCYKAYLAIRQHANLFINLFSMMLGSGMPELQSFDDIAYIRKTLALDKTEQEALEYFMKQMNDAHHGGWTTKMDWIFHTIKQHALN
Chain of PI3K α (P27986 whole entry partner): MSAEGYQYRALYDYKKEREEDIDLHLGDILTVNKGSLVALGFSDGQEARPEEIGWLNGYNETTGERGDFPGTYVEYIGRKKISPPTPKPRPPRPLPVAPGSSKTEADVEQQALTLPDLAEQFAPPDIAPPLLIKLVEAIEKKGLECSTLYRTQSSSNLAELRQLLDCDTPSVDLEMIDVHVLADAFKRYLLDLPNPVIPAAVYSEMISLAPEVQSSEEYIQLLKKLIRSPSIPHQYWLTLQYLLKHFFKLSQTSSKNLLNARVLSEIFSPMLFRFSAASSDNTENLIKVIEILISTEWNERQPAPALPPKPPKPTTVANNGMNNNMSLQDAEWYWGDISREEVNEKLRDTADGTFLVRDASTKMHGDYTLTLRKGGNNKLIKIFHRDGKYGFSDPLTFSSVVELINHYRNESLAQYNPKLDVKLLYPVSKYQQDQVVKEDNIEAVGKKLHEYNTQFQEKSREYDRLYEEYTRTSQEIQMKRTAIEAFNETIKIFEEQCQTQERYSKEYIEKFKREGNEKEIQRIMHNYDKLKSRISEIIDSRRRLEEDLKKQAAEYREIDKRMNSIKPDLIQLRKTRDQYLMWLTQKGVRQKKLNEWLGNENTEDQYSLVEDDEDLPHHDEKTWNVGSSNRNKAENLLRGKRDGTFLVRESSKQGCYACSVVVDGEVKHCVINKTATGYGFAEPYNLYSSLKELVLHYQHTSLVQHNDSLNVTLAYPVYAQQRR

Chain of PI3K β (P42338 whole entry): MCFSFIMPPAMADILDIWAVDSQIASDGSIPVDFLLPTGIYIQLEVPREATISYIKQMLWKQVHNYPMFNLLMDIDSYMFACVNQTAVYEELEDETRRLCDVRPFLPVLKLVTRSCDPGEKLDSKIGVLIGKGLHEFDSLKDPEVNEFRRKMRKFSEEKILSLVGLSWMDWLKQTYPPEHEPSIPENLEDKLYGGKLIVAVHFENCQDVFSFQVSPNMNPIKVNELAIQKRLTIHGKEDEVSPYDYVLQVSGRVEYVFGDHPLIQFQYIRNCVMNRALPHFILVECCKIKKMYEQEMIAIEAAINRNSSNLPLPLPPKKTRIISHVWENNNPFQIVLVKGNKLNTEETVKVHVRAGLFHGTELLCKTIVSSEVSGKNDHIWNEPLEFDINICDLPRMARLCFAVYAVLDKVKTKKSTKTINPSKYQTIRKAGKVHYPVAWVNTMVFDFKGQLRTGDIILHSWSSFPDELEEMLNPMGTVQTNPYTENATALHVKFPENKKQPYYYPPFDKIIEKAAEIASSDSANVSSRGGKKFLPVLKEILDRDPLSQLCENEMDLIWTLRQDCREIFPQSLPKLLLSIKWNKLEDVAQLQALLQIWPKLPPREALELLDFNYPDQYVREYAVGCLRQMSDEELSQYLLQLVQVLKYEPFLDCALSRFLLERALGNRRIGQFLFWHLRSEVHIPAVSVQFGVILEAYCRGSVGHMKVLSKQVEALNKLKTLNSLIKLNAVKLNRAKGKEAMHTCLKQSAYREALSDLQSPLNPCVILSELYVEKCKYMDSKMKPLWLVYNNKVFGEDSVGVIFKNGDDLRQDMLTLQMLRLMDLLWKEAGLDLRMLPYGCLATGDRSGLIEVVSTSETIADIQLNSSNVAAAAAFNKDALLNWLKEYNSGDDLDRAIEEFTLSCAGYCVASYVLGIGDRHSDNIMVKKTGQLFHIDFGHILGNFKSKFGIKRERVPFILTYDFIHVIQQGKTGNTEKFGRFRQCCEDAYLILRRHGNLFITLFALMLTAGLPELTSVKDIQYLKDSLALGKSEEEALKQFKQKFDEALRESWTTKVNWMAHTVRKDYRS
Chain of PI3K β (P27986 whole entry partner): as the sequence (P27986 whole entry partner) above
Chain of PI3K γ (P48736 whole entry): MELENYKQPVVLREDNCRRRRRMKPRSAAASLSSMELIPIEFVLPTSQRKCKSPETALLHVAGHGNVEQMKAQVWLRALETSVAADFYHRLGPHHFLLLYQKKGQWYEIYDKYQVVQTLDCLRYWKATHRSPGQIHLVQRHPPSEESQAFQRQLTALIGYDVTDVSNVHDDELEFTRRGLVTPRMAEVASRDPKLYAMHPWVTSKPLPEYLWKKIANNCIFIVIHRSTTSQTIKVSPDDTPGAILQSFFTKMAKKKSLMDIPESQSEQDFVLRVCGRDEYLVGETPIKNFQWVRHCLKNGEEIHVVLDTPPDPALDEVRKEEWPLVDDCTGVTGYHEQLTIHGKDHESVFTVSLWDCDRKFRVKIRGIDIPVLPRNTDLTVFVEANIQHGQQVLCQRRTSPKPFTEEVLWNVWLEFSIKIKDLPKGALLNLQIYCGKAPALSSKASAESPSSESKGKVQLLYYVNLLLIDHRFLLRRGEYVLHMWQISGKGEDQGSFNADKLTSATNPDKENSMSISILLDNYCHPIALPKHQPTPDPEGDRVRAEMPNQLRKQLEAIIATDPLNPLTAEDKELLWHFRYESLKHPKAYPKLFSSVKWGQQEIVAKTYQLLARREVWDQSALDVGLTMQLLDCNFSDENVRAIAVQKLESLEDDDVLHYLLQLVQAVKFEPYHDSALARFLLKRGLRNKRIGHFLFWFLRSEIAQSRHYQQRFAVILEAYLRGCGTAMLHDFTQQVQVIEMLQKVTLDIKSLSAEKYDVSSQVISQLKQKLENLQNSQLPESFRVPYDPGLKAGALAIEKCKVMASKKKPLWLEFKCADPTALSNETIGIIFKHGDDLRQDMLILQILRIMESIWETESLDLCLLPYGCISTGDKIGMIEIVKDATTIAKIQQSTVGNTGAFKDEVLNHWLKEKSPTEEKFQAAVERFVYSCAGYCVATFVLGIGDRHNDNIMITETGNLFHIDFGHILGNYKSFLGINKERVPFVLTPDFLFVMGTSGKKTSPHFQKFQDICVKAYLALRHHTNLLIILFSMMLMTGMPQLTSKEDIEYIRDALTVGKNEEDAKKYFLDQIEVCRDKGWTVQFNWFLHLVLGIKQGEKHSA
Chain of PI3K δ (O00329 whole entry): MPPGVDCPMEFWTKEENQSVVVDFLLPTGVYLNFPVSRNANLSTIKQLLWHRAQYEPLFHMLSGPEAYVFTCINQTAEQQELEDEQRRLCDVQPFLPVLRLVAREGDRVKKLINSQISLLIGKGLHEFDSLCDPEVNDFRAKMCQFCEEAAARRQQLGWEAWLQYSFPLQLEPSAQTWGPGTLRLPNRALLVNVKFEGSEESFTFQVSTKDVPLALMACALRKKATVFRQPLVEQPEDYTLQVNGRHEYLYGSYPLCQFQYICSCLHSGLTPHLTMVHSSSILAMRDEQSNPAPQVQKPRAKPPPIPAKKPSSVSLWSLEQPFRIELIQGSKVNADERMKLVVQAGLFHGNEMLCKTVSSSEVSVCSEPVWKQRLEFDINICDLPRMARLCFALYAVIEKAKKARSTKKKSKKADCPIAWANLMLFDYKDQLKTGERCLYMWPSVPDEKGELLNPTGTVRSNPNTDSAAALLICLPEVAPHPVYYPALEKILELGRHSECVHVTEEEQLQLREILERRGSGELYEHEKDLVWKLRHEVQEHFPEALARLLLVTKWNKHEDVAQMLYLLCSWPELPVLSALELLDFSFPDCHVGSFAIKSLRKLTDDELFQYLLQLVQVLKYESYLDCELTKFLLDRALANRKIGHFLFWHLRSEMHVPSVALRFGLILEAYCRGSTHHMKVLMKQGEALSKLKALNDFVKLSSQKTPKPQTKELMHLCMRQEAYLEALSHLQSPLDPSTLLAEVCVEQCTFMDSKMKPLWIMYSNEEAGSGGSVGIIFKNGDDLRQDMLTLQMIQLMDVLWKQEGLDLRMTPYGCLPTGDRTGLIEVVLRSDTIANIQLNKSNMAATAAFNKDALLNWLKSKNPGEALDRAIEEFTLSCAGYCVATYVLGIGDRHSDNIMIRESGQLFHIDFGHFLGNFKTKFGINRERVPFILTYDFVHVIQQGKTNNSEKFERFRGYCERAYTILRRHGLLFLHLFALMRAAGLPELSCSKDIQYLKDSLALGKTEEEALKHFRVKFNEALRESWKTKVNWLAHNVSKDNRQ
Chain of PI3K δ (P27986 whole entry partner): as the sequence (P27986 whole entry partner) above

- IC50 (PI3K γ; read-out: PI3K γ IC50, Table 4): < 10 µM
SMILES: C[C@H]1COCCN1C1CN(c2cnc3ccc(-c4ccc5oc(N)nc5c4)nc3c2)C1 [Compound 619]

- IC50 (PI3K δ; read-out: PI3K δ IC50): < 10 µM
SMILES: CN1CCN([C@H]2CCN(c3cnc4ccc(-c5ccc6oc(N)nc6c5)cc4n3)C2)CC1 [Compound 381]

- IC50 (PI3K β; Table 4): < 10 µM
SMILES: Nc1nc2cc(-c3ccc4ncc(N5CC(N6CCN(CCO)CC6)C5)cc4n3)ccc2o1 [Compound 616]

- IC50 (PI3K γ; read-out: PI3K γ IC50, Table 4): < 10 µM
SMILES: CCN1CCN(C2CN(c3cnc4ccc(-c5ccc6oc(N)nc6c5)nc4c3)C2)CC1 [Compound 626]

- IC50 (PI3K α; read-out: PI3K α IC50): < 0.1 µM
- IC50 (PI3K β): < 1 µM
- IC50 (PI3K δ; read-out: PI3K δ IC50): < 1 µM
SMILES: CC(C)[C@H](N)C(=O)N1CCN(c2cnc3ccc(-c4ccc5oc(N)nc5c4)cc3n2)CC1 [Compound 269]

- IC50 (PI3K β; Table 4): < 10 µM
SMILES: Nc1nc2cc(-c3ccc4ncc(N5CCC(O)CC5)nc4n3)ccc2o1 [Compound 596]

- IC50 (PI3K α; read-out: PI3K α IC50, Table 4): < 10 µM
SMILES: CC(C)(N)C(=O)N1CCN(c2ccc3ncc(-c4ccc5oc(N)nc5c4)cc3n2)CC1 [Compound 633]

- IC50 (PI3K δ): > 10 µM
- IC50 (PI3K γ): < 10 µM
SMILES: C[C@H]1CN(c2cnc3ccc(-c4ccc5oc(N)nc5c4)cc3n2)CCN1 [Compound 396]

- IC50 (PI3K δ; read-out: PI3K δ IC50, Table 4): < 10 µM
SMILES: CC(C)N1CCN(c2cnc3ccc(-c4ccc5oc(N)nc5c4)nc3n2)CC1 [Compound 583]

- IC50 (PI3K β; Table 4): < 10 µM
SMILES: C[C@@H]1COCCN1C1CN(c2cnc3ccc(-c4ccc5oc(N)nc5c4)nc3c2)C1 [Compound 617]

- IC50 (PI3K β; Table 4): < 10 µM
- IC50 (PI3K δ; read-out: PI3K δ IC50, Table 4): < 10 µM
SMILES: NCC(=O)N1CCN(c2cnc3ccc(-c4ccc5oc(N)nc5c4)nc3n2)CC1 [Compound 584]

- IC50 (PI3K β; Table 4): < 10 µM
SMILES: CCOC(=O)N1CCN(c2cnc3ccc(-c4ccc5oc(N)nc5c4)nc3c2)CC1 [Compound 587]

Continued, molecule first:

SMILES: CCOC(=O)N1CC=C(c2cnc3ccc(-c4ccc5oc(N)nc5c4)nc3n2)CC1 [Compound 560]
- IC50 (PI3K β; Table 4): < 10 µM
- IC50 (PI3K δ; read-out: PI3K δ IC50, Table 4): < 10 µM

SMILES: CC1(C)CN(C2CN(c3cnc4ccc(-c5ccc6oc(N)nc6c5)nc4n3)C2)CCN1 [Compound 603]
- IC50 (PI3K β; Table 4): < 10 µM

SMILES: Nc1nc2cc(-c3ccc4ncc(C(=O)N5CC[C@@H](O)C5)n4c3)ccc2o1 [Compound 265]
- IC50 (PI3K δ; read-out: PI3K δ IC50): < 10 µM

SMILES: C[C@H]1CN(C2CN(c3cnc4ccc(-c5ccc6oc(N)nc6c5)nc4c3)C2)CCN1 [Compound 605]
- IC50 (PI3K β; Table 4): < 10 µM
- IC50 (PI3K γ; read-out: PI3K γ IC50, Table 4): < 10 µM

SMILES: Nc1nc2cc(-c3ccc4ncc(N5CC(N6CCOCC6)C5)nc4n3)ccc2o1 [Compound 556]
- IC50 (PI3K δ; read-out: PI3K δ IC50): < 10 µM
- IC50 (PI3K γ; read-out: PI3K γ IC50, Table 4): < 10 µM

SMILES: [2H]C1([2H])OC([2H])([2H])C([2H])([2H])N(C(=O)c2cnc3ccc(-c4ccc5oc(N)nc5c4)cn23)C1([2H])[2H] [Compound 529]
- IC50 (PI3K α; read-out: PI3K α IC50, in vitro): < 1 µM
- IC50 (PI3K β; in vitro): > 10 µM
- IC50 (PI3K δ; read-out: PI3K δ IC50, in vitro): > 10 µM

SMILES: COC(=O)Nc1noc2ccc(-c3nn(C(C)C)c4ncnc(N)c34)cc12 [Compound 20]
- IC50 (PI3K α): < 10 µM
- IC50 (PI3K δ): < 10 µM

SMILES: CC1(C)CN(C2CN(c3cnc4ccc(-c5ccc6oc(N)nc6c5)nc4c3)C2)CCN1 [Compound 609]
- IC50 (PI3K β; Table 4): < 10 µM

SMILES: C[C@H]1CN(C2CN(c3cnc4ccc(-c5ccc6oc(N)nc6c5)nc4n3)C2)CCN1 [Compound 561]
- IC50 (PI3K δ; read-out: PI3K δ IC50, Table 4): < 10 µM
- IC50 (PI3K γ; read-out: PI3K γ IC50, Table 4): < 10 µM

SMILES: CN1CCN(C2CN(c3cnc4ccc(-c5ccc6oc(N)nc6c5)nc4n3)C2)CC1 [Compound 622]
- IC50 (PI3K β; Table 4): < 10 µM

SMILES: Nc1nc2cc(-c3ccc4ncc(C5=CCOCC5)nc4n3)ccc2o1 [Compound 562]
- IC50 (PI3K β; Table 4): < 10 µM

SMILES: CN1CCC(Oc2ncnc3ccc(-c4ccc5oc(N)nc5c4)cc23)CC1 [Compound 34]
- IC50 (PI3K γ; read-out: PI3K γ IC50): < 0.1 µM

SMILES: C[C@@H]1CN(C2CN(c3cnc4ccc(-c5ccc6oc(N)nc6c5)nc4n3)C2)CCN1C [Compound 576]
- IC50 (PI3K δ; read-out: PI3K δ IC50, Table 4): < 10 µM
- IC50 (PI3K γ; read-out: PI3K γ IC50, Table 4): < 10 µM

SMILES: CN1CCN(c2cnc3ccc(-c4ccc5oc(N)nc5c4)nc3n2)CC1 [Compound 555]
- IC50 (PI3K δ; read-out: PI3K δ IC50): < 10 µM
- IC50 (PI3K γ; read-out: PI3K γ IC50, Table 4): < 10 µM

SMILES: CCN(CC)c1cnc2ccc(-c3ccc4oc(N)nc4c3)nc2n1 [Compound 577]
- IC50 (PI3K δ; read-out: PI3K δ IC50, Table 4): < 10 µM

SMILES: Nc1nc2cc(-c3ccc4ncc(-c5cccnc5)cc4n3)ccc2o1 [Compound 567]
- IC50 (PI3K β; Table 4): < 10 µM
- IC50 (PI3K δ; read-out: PI3K δ IC50, Table 4): < 10 µM

SMILES: Nc1nc2cc(-c3ccc4ncc(N5CC(N6CCOCC6)C5)cc4n3)ccc2o1 [Compound 604]
- IC50 (PI3K β; Table 4): < 10 µM
- IC50 (PI3K δ; read-out: PI3K δ IC50): < 10 µM

SMILES: CN1CCN(CCNC(=O)c2cnc3ccc(-c4ccc5oc(N)nc5c4)cn23)CC1 [Compound 306]
- IC50 (PI3K α; read-out: PI3K α IC50): < 0.1 µM
- IC50 (PI3K β): < 1 µM
- IC50 (PI3K δ; read-out: PI3K δ IC50): < 1 µM

SMILES: C[C@@H]1CN(c2cnc3ccc(-c4ccc5oc(N)nc5c4)cc3n2)CCN1 [Compound 179]
- IC50 (PI3K δ; read-out: PI3K δ IC50): < 10 µM

SMILES: C[C@H]1COCCN1c1cnc2ccc(-c3ccc4oc(N)nc4c3)nc2n1 [Compound 566]
- IC50 (PI3K β; Table 4): < 10 µM

SMILES: C[C@@H]1COCCN1c1cnc2ccc(-c3ccc4oc(N)nc4c3)nc2n1 [Compound 565]
- IC50 (PI3K β; Table 4): < 10 µM
- IC50 (PI3K δ; read-out: PI3K δ IC50, Table 4): < 10 µM

SMILES: Nc1nc2cc(-c3ccc4ncc(C(=O)N5CC[C@H](O)C5)n4c3)ccc2o1 [Compound 264]
- IC50 (PI3K δ; read-out: PI3K δ IC50): < 10 µM
